The record followed here is ChEMBL document CHEMBL2163248, “Classification of inhibitors of hepatic organic anion transporting polypeptides (OATPs): influence of protein expression on drug-drug interactions” (J Med Chem, 2012).

Series [1] addresses T1, Solute carrier organic anion transporter family member 1B3 (Homo sapiens, UniProt Q9NPD5).
T1 sequence (Q9NPD5 whole entry): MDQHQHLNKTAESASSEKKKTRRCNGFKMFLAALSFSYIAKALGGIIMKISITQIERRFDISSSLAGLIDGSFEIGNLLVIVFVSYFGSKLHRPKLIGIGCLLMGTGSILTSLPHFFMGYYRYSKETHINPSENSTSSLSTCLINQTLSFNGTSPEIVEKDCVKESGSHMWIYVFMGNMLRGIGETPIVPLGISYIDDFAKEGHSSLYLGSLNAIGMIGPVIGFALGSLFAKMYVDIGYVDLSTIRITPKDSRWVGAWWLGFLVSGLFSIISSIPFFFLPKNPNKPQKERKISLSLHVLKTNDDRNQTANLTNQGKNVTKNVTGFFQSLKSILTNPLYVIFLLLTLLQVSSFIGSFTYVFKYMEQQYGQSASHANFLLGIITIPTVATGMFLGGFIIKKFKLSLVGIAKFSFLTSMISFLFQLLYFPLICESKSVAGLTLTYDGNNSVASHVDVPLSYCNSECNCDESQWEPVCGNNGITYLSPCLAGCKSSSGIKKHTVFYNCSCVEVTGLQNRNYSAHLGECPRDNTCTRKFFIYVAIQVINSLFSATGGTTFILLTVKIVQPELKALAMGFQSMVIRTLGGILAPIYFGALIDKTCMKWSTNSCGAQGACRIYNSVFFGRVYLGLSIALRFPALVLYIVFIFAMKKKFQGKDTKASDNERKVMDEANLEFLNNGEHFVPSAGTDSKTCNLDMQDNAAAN
In words: Inhibition of human liver OATP1B3 expressed in HEK293 Flp-In cells assessed as reduction in [3H]E17-betaG uptake at 20 uM incubated for 5 mins by scintillation counting. To be noted: hek293, 5 min.

Series [2] deals with T1, Solute carrier organic anion transporter family member 1B3. In words: Inhibition of human liver OATP1B3 expressed in HEK293 Flp-In cells assessed as reduction in [3H]E17-betaG uptake incubated for 5 mins by scintillation counting. It counts as ADME, cell-based.
Series [3] addresses T2, Solute carrier organic anion transporter family member 1B1 (Homo sapiens, UniProt Q9Y6L6).
T2 sequence (Q9Y6L6 whole entry): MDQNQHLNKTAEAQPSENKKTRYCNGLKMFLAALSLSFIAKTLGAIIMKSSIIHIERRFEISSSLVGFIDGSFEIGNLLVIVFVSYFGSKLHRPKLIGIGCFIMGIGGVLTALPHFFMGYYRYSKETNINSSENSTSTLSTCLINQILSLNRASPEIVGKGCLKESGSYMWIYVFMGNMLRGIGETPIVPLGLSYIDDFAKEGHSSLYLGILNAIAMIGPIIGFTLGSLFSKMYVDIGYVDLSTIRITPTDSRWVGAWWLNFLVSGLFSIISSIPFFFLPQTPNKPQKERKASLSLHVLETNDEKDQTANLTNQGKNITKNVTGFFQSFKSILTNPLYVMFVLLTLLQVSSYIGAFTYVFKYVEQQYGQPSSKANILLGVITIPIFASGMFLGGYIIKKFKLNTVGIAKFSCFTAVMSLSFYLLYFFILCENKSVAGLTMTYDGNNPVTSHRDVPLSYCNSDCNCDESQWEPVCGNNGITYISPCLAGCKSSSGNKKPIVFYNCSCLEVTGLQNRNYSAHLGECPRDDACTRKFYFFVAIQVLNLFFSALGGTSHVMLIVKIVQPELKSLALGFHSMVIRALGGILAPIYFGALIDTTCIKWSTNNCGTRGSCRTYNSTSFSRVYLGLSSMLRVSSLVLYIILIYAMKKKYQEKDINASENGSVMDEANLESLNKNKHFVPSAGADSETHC
In words: Inhibition of human liver OATP1B1 expressed in HEK293 Flp-In cells assessed as reduction in E17-betaG uptake at 20 uM by scintillation counting. To be noted: hek293, 20 µM.

For series [4], the target named is T3, Solute carrier organic anion transporter family member 2B1 (Homo sapiens, UniProt O94956).
T3 sequence (O94956 whole entry): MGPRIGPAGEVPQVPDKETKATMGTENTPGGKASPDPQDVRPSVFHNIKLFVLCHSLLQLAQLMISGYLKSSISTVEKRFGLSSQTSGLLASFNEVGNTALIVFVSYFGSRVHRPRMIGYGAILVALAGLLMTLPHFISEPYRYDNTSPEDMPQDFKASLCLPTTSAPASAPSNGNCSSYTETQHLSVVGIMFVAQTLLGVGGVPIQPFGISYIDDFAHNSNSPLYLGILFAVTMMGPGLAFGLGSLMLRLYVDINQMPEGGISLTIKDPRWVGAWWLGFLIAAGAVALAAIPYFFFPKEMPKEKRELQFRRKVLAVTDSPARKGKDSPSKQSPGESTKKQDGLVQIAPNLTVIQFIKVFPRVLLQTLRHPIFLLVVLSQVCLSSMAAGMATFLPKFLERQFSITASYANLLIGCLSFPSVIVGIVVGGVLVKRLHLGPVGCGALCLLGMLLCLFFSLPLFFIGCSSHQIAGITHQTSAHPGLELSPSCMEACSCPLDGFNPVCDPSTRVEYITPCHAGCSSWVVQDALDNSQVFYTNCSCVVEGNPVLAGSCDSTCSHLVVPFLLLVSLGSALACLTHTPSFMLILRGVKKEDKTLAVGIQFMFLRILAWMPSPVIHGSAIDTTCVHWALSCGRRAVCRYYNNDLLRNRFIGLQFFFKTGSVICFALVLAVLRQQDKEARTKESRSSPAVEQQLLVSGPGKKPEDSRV
As to the kind of experiment: Inhibition of human liver OATP2B1 expressed in HEK293 Flp-In cells assessed as reduction in [3H]E3S uptake at 20 uM incubated for 5 mins by scintillation counting. To be noted: hek293, 5 min.

In series [5] the target is T2, Solute carrier organic anion transporter family member 1B1. As to the kind of experiment: Inhibition of human liver OATP1B1 expressed in HEK293 Flp-In cells assessed as reduction in E17-betaG uptake by scintillation counting. It counts as ADME, cell-based.
The test system of series [6] is OATP1B1 versus OATP1B3. In words: Selectivity index, ratio of IC50 for human liver OATP1B1 to IC50 for OATP1B3. To be noted: read-out: Ratio IC50.

With `CC[C@]1(O)C[C@H]2CN(CCc3c([nH]c4ccccc34)[C@@](C(=O)OC)(c3cc4c(cc3OC)N(C=O)[C@H]3[C@@](O)(C(=O)OC)[C@H](OC(C)=O)[C@]5(CC)C=CCN6CC[C@]43[C@@H]65)C2)C1` [VINCRISTINE], the INH was found to be 59.8% in series [1], 3.9% in series [3] and 13% in series [4]. In addition, the values for the IC50 in series [2] and in series [5] were 11 µM and 44 µM, respectively. Further, the selectivity ratio in series [6] came out at 4.
